Activity calls are given as the source filed them. Bounds are passed on as bounds.

Our source for the EC50 and IC50 values is ChEMBL document CHEMBL1201862, “PubChem BioAssay data set” (2004).

Assay [1] has as its target T1, Neuropeptide Y receptor type 2 (Homo sapiens, UniProt P49146).
T1 sequence (P49146 whole entry): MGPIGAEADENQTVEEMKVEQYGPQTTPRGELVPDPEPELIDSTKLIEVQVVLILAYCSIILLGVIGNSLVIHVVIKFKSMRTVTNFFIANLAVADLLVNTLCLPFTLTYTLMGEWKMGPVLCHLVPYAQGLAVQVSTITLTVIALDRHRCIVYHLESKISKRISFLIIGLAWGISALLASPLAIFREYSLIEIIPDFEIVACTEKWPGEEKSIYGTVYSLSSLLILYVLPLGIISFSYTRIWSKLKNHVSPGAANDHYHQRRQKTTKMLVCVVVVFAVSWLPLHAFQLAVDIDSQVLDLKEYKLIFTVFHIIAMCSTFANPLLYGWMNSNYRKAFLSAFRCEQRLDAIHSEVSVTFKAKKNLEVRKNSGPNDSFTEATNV
Put plainly: Fluorescence-based cell-based high-throughput dose response assay for agonists of NPY-Y2. [Related pubchem assays: 1703 (Screening assay (CNGC inhibitors).), 1359 (Screening assay (NPY-Y2 potentiators or agonists).), 1304 (Screening assay (NPY-Y1 potentiators or agonists).), 1710 (Screening assay (NPY-Y2 agonists).), 1791 (Summary AID.)]. The class given is functional.

The test system of assay [2] is HEK293. Put plainly: Fluorescence-based counterscreen for potentiators or agonists of NPY-Y2: cell-based high-throughput dose response assay to identify inhibitors of cyclic nucleotide gated ion channel (CNGC) activity. In this assay, the parental HEK293 cell line transfected with a cyclic-nucleotide gated ion channel (CNGC)-based cAMP sensor is used to measure inhibition of isoproterenol-induced CNGC activity by test compound. The assay is classed as functional. The following applies: Homo sapiens. Background: The purpose of a counterscreen is to sort out artefacts and off-target activity.

For assay [3], the target named is T2, Neuropeptide Y receptor type 1 (Homo sapiens, UniProt P25929).
T2 sequence (P25929 whole entry): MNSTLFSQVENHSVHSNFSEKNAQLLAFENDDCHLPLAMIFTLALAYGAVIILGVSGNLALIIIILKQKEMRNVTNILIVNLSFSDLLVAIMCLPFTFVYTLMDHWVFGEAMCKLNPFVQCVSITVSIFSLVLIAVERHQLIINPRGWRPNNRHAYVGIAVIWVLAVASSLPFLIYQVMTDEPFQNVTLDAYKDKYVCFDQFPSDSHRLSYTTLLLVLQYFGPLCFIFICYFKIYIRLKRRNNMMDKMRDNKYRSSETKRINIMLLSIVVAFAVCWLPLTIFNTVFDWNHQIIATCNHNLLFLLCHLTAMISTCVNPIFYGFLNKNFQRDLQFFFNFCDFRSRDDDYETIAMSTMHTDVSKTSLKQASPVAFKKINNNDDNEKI
Put plainly: Fluorescence-based counterscreen for agonists of NPY-Y2: cell-based high-throughput dose response assay for agonists of NPY-Y1. The class given is functional.

The target of assay [4] is T3, RNA-binding protein pos-1 (Caenorhabditis elegans, UniProt G5EF15).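 Note: purified POS-1 fused to maltose binding protein made in E. coli; potency of compounds blocking POS-1 binding to fluorescent RNA.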
T3 sequence (G5EF15 whole entry): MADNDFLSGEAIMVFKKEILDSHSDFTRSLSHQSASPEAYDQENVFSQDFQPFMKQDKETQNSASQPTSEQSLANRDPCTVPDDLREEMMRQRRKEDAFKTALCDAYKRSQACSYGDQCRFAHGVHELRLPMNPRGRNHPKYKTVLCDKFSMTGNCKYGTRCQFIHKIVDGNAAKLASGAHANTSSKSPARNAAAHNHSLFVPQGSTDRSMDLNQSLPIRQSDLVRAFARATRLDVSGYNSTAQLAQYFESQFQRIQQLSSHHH
Put plainly: disruptors of C. elegans POS-1 RNA interaction – biochemical, fluorescence polarization, dose response (AID 1964). (Fluorescence polarisation rises when a labelled molecule tumbles more slowly, as on binding a larger partner.)

Assay [5] has as its system HEK293. Put plainly: cells. The assay is classed as functional, cell-based. Particulars: Homo sapiens.
Assay [6] can be described thus: mitochondrial function rescue without frataxin homolog – Friedreich's ataxia, plus single-dose screen, dose response (AID 1465).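 Note: yeast depleted of Yfh1p frataxin homolog grown on glycerol needing respiration; WST-1 tetrazolium dye reduction as measure of cellular dehydrogenase metabolic activity.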 The assay is classed as functional.
For assay [7], the target named is T4, Nuclear receptor subfamily 0 group B member 1 (Homo sapiens, UniProt P51843).
T4 sequence (P51843 whole entry): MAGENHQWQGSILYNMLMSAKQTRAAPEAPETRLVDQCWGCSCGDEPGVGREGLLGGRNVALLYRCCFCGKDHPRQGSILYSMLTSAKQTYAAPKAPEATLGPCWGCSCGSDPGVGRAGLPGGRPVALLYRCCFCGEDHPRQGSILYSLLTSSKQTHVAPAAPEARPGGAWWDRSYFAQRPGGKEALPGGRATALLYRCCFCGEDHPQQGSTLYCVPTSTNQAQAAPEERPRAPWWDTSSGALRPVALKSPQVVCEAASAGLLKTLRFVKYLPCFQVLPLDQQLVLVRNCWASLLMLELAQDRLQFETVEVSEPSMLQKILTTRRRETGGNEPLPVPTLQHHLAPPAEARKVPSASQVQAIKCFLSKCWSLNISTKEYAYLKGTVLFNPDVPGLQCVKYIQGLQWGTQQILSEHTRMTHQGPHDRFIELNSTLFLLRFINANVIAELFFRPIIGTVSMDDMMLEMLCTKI
Put plainly: Luminescence-based cell-based high throughput dose response assay for inhibitors of the orphan nuclear receptor subfamily 0, group B, member 1 (DAX1; NR0B1). [Related pubchem assays (depositor defined):AID504766, AID504790]. The class given is functional.

The nature of assay [8]: Counterscreen for IDE inhibitors: Luminescence-based cell-based high throughput dose response assay to identify compounds that are cytotoxic to HEK cells. [Related pubchem assays: 434962 (Primary screen (IDE inhibitors in singlicate)), 449730 (Counterscreen (Cytotoxicity in triplicate)), 435028 (Confirmation (IDE inhibitors in triplicate)) …. The assay is classed as functional. The following applies: HEK293.

The target in assay [9] is T5, Insulin-degrading enzyme (Homo sapiens, UniProt P14735).
T5 sequence (P14735 whole entry): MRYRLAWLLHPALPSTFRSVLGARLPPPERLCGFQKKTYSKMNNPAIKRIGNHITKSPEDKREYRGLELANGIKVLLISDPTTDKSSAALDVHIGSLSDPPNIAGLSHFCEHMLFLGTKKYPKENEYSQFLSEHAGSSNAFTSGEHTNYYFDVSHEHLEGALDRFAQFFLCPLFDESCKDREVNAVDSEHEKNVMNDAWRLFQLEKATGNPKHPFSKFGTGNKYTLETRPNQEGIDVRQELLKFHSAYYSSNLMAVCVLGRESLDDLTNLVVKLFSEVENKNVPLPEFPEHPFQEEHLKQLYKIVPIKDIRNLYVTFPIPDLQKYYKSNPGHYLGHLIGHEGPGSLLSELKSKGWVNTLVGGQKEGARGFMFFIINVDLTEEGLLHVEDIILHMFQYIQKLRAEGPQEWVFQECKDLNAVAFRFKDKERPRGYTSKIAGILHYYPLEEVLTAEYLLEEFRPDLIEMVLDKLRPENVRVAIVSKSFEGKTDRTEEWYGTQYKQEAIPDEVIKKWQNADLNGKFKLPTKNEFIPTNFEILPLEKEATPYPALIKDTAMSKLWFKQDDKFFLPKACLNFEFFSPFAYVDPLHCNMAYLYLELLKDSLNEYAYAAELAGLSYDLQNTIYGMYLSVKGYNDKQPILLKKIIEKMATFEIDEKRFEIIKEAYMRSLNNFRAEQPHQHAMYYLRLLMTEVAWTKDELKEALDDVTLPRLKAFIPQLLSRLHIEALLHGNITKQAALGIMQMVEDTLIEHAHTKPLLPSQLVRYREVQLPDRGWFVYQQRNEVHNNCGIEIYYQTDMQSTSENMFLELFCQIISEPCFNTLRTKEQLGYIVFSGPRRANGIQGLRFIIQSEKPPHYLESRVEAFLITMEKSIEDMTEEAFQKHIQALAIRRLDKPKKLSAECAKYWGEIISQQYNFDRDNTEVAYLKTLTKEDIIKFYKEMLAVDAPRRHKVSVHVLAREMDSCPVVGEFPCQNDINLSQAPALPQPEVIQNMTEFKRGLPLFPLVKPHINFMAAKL
Put plainly: Dose Response: Fluorescence polarization-based cell-based high throughput dose response assay for inhibitors of insulin-degrading enzyme (IDE). [Related pubchem assays: 434962 (Primary screen (IDE inhibitors in singlicate)), 449730 (Counterscreen (Cytotoxicity in triplicate)), 435028 (Confirmation (IDE inhibitors in triplicate)), 434984 (Summary …. The assay is classed as functional.

As a reminder, the EC50 is the concentration needed to bring the measured effect to its halfway point. As for `COC(=O)/C(=C/c1cn(C(C)=O)c2ccccc12)[N+](=O)[O-]`, the results for the EC50 in assay [1], in assay [2] and in [3] were > 35.4 µM (not active), 12.3 µM (not active) and > 35.4 µM (not active), respectively.

One may read the IC50 as the concentration needed to halve the response being measured. Regarding `CCN(CC)c1ccc(/C=C2\C(=O)NC(=S)N(C)C2=O)o1`, the results for the EC50 in assay [4] and in assay [6] were > 300 µM (inconclusive) and > 100 µM (active), respectively. Further, the IC50 in assay [5] was > 67.6 µM (inactive); in assay [7], > 67.6 µM (inactive); in [8] it was > 55.7 µM (not active); in assay [9] it was 14 µM (not active).
